One may read the IC50 as the midpoint of a concentration-inhibition curve. A lower IC50 goes with inhibition by little substance. As usually defined, the melting point is the temperature, or range, at which the solid turns liquid.

Series [1] has as its system MCF-7 (breast) cancer cells. As to the kind of experiment: SRB cytotoxicity assay against MCF7. It counts as cell-based, human. The conditions noted are these: 72 h treatment. The procedure: (§1) MCF-7 (breast) and PC3 (prostate) cancer cells were each grown in RPMI-1640 medium supplemented with 10% heat inactivated FBS, 50 units/mL of penicillin, and […] of streptomycin. The cultures were maintained at 37° C. in a humidified atmosphere containing 5% CO2. The cells were maintained as “monolayer culture” by serial sub-culturing.
(§2) Cytotoxicity was determined using SRB method as previously described by Skehan et al. [Skehan P.; Storeng R.; Scudiero D.; Monks A.; McMahon J.; al., V. D. e., New colorimetric cytotoxicity assay for anticancer drug screening. […] Exponentially growing cells were collected using 0.25% Trypsin-EDTA and seeded in 96-well plates at 1000-2000 cells/well in RPMI-1640 supplemented medium. After 24 h, cells were incubated for 72 h with various concentrations of the tested compounds. Following 72 h treatment, the cells would be fixed with 10% trichloroacetic acid for 1 h at 4° C. Wells were stained for 10 min at room temperature with 0.4% SRB dissolved in 1% acetic acid. The plates were air dried for 24 h and the dye was solubilized with Tris-HCl for 5 min on a shaker at 1600 rpm. The optical density (OD) of each well was measured spectrophotometrically at 564 nm with an ELISA microplate reader (ChroMate-4300, FL, USA). The IC50 values were calculated according to the equation for Boltzman sigmoidal concentration—response curve using the nonlinear regression fitting models (Graph Pad, Prism Version 5).

Series [2] relates to PC3 (prostate) cancer cells. As to the kind of experiment: SRB cytotoxicity assay against PC3. In kind it is cell-based, human. The conditions noted are these: 72 h treatment. The procedure: as §1, §2

Some results are limits rather than exact numbers.

For the molecule `O=C(Cc1ccc(NC(=O)C(=Cc2ccc(Cl)cc2)NC(=O)c2ccccc2)cc1)NCc1ccccc1` (stereo in doubt) [KIM-221V, (E)-N-(3-((4-(2-(benzylamino)-2-oxoethyl)phenyl)amino)-1-(4-chlorophenyl)-3-oxoprop-1-en-2-yl)benzamide], the results for the half-inhibitory concentration (IC50) in series [1] (Homo sapiens) and in series [2] (Homo sapiens) were 3.12 µM and 4.08 µM, respectively.

In turn, `CC1=N/C(=C\c2ccccc2)C(=O)N1c1ccc(CC(=O)NCc2ccccc2)cc1` [KIM-111C, (Z)—N-benzyl-2-(4-(4-benzylidene-2-methyl-5-oxo-4,5-dihydro-1H-imidazol-1-yl)phenyl)acetamide] yielded a melting point of 164 to 165 °C. As to `CC(=O)N/C(=C/c1ccc(Cl)cc1)C(=O)Nc1ccc(CC(=O)NCc2ccccc2)cc1` [KIM-121V, (E)-2-acetamido-N-(4-(2-(benzylamino)-2-oxoethyl)phenyl)-3-(4-chlorophenyl)acrylamide], the half-maximal inhibitory concentration (IC50) is over 100 µM in series [1] (Homo sapiens) and 57.3 µM in series [2] (Homo sapiens). For `COc1cc(/C=C2\N=C(C)N(c3ccc(CC(=O)NCc4ccccc4)cc3)C2=O)ccc1O` [KIM-131C, (Z)—N-benzyl-2-(4-(4-(4-hydroxy-3-methoxybenzylidene)-2-methyl-5-oxo-4,5-dihydro-1H-imidazol-1-yl)phenyl)acetamide], in that order: 9.48 µM and 5.83 µM. Regarding `COc1cc(/C=C(/NC(C)=O)C(=O)Nc2ccc(CC(=O)NCc3ccccc3)cc2)ccc1O` [KIM-131V, (E)-2-acetamido-N-(4-(2-(benzylamino)-2-oxoethyl)phenyl)-3-(4-hydroxy-3-methoxyphenyl) acrylamide], the IC50 in series [1] was 53.5 µM; in series [2], 61.3 µM. Taken in the same sequence, the figures for `COc1ccc(/C=C(/NC(C)=O)C(=O)Nc2ccc(CC(=O)NCc3ccccc3)cc2)cc1` [KIM-161V, (E)-2-acetamido-N-(4-(2-(benzylamino)-2-oxoethyl)phenyl)-3-(4-methoxyphenyl) acrylamide] were 44.3 µM and 41.1 µM.

Turning to `O=C(Cc1ccc(N2C(=O)/C(=C/c3ccccc3)N=C2c2ccccc2)cc1)NCc1ccccc1` [KIM-211C, (Z)—N-benzyl-2-(4-(4-benzylidene-5-oxo-2-phenyl-4,5-dihydro-1H-imidazol-1-yl)phenyl)acetamide], the melting point lay in the range of 218 to 219 °C.

Turning to `O=C(Cc1ccc(NC(=O)/C(=C\c2ccccc2)NC(=O)c2ccccc2)cc1)NCc1ccccc1` [KIM-211V, (E)-N-(3-((4-(2-(benzylamino)-2-oxoethyl)phenyl)amino)-3-oxo-1-phenylprop-1-en-2-yl) benzamide], the half-maximal inhibitory concentration (IC50) in series [1] (Homo sapiens) and in series [2] (Homo sapiens) was over 100 µM in each case. As for `O=C(Cc1ccc(N2C(=O)/C(=C/c3ccc(Cl)cc3)N=C2c2ccccc2)cc1)NCc1ccccc1` [KIM-221C, (Z)—N-benzyl-2-(4-(4-(4-chlorobenzylidene)-5-oxo-2-phenyl-4,5-dihydro-1H-imidazol-1-yl)phenyl)acetamide], the melting point lay in the range of 218 to 220 °C.

Take `COc1cc(/C=C(/NC(=O)c2ccccc2)C(=O)Nc2ccc(CC(=O)NCc3ccccc3)cc2)ccc1O` [KIM-231V, (E)-N-(3-((4-(2-(benzylamino)-2-oxoethyl)phenyl)amino)-1-(4-hydroxy-3-methoxyphenyl)-3-oxoprop-1-en-2-yl)benzamide]: the half-maximal inhibitory concentration (IC50) in series [1] (Homo sapiens) and in series [2] (Homo sapiens) was over 100 µM throughout. As to `COc1ccc(/C=C(/NC(=O)c2ccccc2)C(=O)Nc2ccc(CC(=O)NCc3ccccc3)cc2)cc1` [KIM-261V, (E)-N-(3-((4-(2-(benzylamino)-2-oxoethyl)phenyl)amino)-1-(4-methoxyphenyl)-3-oxoprop-1-en-2-yl)benzamide], the IC50 in series [1] (Homo sapiens) and in series [2] (Homo sapiens) was over 100 µM each time. On to `Cc1cc(F)ccc1/C=C(/NC(=O)c1ccccc1)C(=O)Nc1ccc(CC(=O)NCc2ccccc2)cc1` [KIM-2101V, (E)-N-(3-((4-(2-(benzylamino)-2-oxoethyl)phenyl)amino)-1-(4-fluoro-2-methylphenyl)-3-oxoprop-1-en-2-yl)benzamide], for which the half-maximal inhibitory concentration (IC50) in series [1] (Homo sapiens) and in series [2] (Homo sapiens) was over 100 µM in each case. Regarding `COc1ccc(CNC(=O)Cc2ccc(NC(=O)/C(=C\c3ccc(Cl)cc3)NC(=O)c3ccccc3)cc2)cc1` [KIM-2216V, (E)-N-(1-(4-chlorophenyl)-3-((4-(2-((4-methoxybenzyl)amino)-2-oxoethyl)phenyl)amino)-3-oxoprop-1-en-2-yl)benzamide], the IC50 in series [1] (Homo sapiens) and in series [2] (Homo sapiens) was over 100 µM in each case. With `O=C(Cc1ccc(NC(=O)/C(=C\c2ccc(Cl)cc2)NC(=O)c2ccccc2)cc1)NCc1ccco1` [KIM-2230V, (E)-N-(1-(4-chlorophenyl)-3-((4-(2-((furan-2-ylmethyl)amino)-2-oxoethyl)phenyl)amino)-3-oxoprop-1-en-2-yl)benzamide], the IC50 was over 100 µM in series [1] (Homo sapiens) and 97.8 µM in series [2] (Homo sapiens). `CN(Cc1ccccc1)C(=O)Cc1ccc(NC(=O)/C(=C\c2ccc(Cl)cc2)NC(=O)c2ccccc2)cc1` [KIM-2245V, (E)-N-(3-((4-(2-(benzyl(methyl)amino)-2-oxoethyl)phenyl)amino)-1-(4-chlorophenyl)-3-oxoprop-1-en-2-yl)benzamide]: the concentration for half-maximal inhibition (IC50) in series [1] (Homo sapiens) and in series [2] (Homo sapiens) was over 100 µM each time. In the case of `O=C(Cc1ccc(NC(=O)/C(=C\c2ccc(Cl)cc2)NC(=O)c2ccccc2)cc1)NCCc1ccccc1` [KIM-2246V, (E)-N-(1-(4-chlorophenyl)-3-oxo-3-((4-(2-oxo-2-(phenethylamino)ethyl)phenyl)amino)prop-1-en-2-yl)benzamide], the IC50 in series [1] (Homo sapiens) and in series [2] (Homo sapiens) was over 100 µM throughout. Turning to `CC(NC(=O)Cc1ccc(NC(=O)/C(=C\c2ccc(Cl)cc2)NC(=O)c2ccccc2)cc1)c1ccccc1` (stereo not drawn) [KIM-2247V, (E)-N-(1-(4-chlorophenyl)-3-oxo-3-((4-(2-oxo-2-((1-phenylethyl)amino)ethyl)phenyl)amino)prop-1-en-2-yl)benzamide], the IC50 in series [1] (Homo sapiens) and in series [2] (Homo sapiens) was over 100 µM each time. Regarding `O=C(Cc1ccc(NC(=O)/C(=C\c2ccc(Cl)cc2)NC(=O)c2ccccc2)cc1)NCc1ccc(F)cc1` [KIM-2248V, (E)-N-(1-(4-chlorophenyl)-3-((4-(2-((4-fluorobenzyl)amino)-2-oxoethyl)phenyl)amino)-3-oxoprop-1-en-2-yl)benzamide], the concentration for half-maximal inhibition (IC50) in series [1] (Homo sapiens) was determined as 89.6 µM; in series [2] (Homo sapiens), 85.1 µM.

Consider `O=C(Cc1ccc(NC(=O)/C(=C\c2ccc(Cl)cc2)NC(=O)c2ccccc2)cc1)NCc1ccc(-c2ccccc2)cc1` [KIM-2249V, (E)-N-(3-((4-(2-(([1,1′-biphenyl]-4-ylmethyl)amino)-2-oxoethyl)phenyl)amino)-1-(4-chlorophenyl)-3-oxoprop-1-en-2-yl)benzamide], for which the half-maximal inhibitory concentration (IC50) in series [1] (Homo sapiens) worked out at 87.5 µM; in series [2] (Homo sapiens), 92.2 µM.

As to `O=C(Cc1ccc(NC(=O)/C(=C\c2ccc(Cl)cc2)NC(=O)c2ccccc2)cc1)NCc1cccc(F)c1` [KIM-2250V, (E)-N-(1-(4-chlorophenyl)-3-((4-(2-((3-fluorobenzyl)amino)-2-oxoethyl)phenyl)amino)-3-oxoprop-1-en-2-yl)benzamide], the IC50 in series [1] (Homo sapiens) and in series [2] (Homo sapiens) was over 100 µM each time. Turning to `O=C(Cc1ccc(NC(=O)/C(=C\c2ccc(Cl)cc2)NC(=O)c2ccccc2)cc1)Nc1ccccc1` [KIM-22101V, (E)-N-(1-(4-chlorophenyl)-3-oxo-3-((4-(2-oxo-2-(phenylamino)ethyl)phenyl)amino)prop-1-en-2-yl)benzamide], the IC50 in series [1] (Homo sapiens) and in series [2] (Homo sapiens) was over 100 µM in each case.

The values are drawn from patent publication US11174233B1, “Anti-cancer compounds having oxazolone derivation” (King Abdulaziz University, priority 2019, dated 2021).
